Laboratory results taken from patent US9815883B2, “Inhibiting peptides derived from TREM-like transcript 1 (TLT-1) and uses thereof” (Institut National de la Sante et de la Recherche Medicale …, priority 2010, dated 2017).
Entries after “also recorded” stand apart in the source; their conditions may differ.

What was measured:
TREM-1 ligand (agonist) = experiment: Immunoblot revealed by mouse anti-TREM-1 mAb (TREM-1 agonist); type: binding; conditions: FIG. 1A
From the text: To determine whether sTLT-1 may specifically bind to the TREM-1 ligand and thus interfere with the TREM-1/TREM-1 ligand interaction, we used a specific TREM-1 agonist known to bind and activate TREM-1, mimicking TREM-1 engagement by its ligand.

[1] = tested on: TREM-1 ligand binding to immobilized TREM-1; experiment: Surface plasmon resonance, LPS-stimulated neutrophils supernatants on rsTREM-1-coated sensor chip; parameters: species or system human; conditions: FIG. 1D
Method: (C-D) Surface plasmon resonance assays of LPS-stimulated neutrophils supernatants to a rsTREM-1-coated sensorship in absence (C) or presence (D) of LR17.
Detection of TREM-1-ligand on LPS-stimulated neutrophils supernatants was assessed by binding to a recombinant soluble form of TREM-1 (rsTREM-1) coated on a CM5 sensor chip with the BIAcore X instrument at 25° C. with a flow rate of […]. Binding specificity was verified through competition with the soluble rsTREM-1. Inhibition of TREM-1-ligand binding by LR17 was assessed.

human neutrophils = experiment: Neutrophil phagocytosis and oxidative burst (Phagotest, Bursttest); type: cell-based
Method: Data (mean±SD) are representative of 6 different experiments.
The quantitative determination of neutrophil phagocytosis and oxidative burst was performed by flow cytometry using the Phagotest and the Bursttest (Orpegen Pharma, Heidelberg, Germany) following the manufacturers' recommendations. A FITC-labelled opsonized E. coli was used to determine the general phagocytic activity (ingestion of one or more bacteria per cell) and the individual cellular phagocytic activity (number of bacteria per cell). For evaluation of oxidative burst activity, unlabeled opsonized E. coli, fMLP, PMA LPS and activated- or non-activated-platelets (30:1) were used as stimulants and DCFDA as a fluoregenic substrate (Invitrogen) accordingly with manufacturers' instructions.

TREM-1 = experiment: Cytokine expression and production by stimulated neutrophils and monocytes; type: cell-based, human
Method: (E) Cytokines expression: TNF-α mRNA levels in neutrophils stimulated for 6 hours.
(F) Cytokines production: ELISA of TNF-α in neutrophils treated for 2, 6 and 24 hours
(F) Cytokines expression: TNF-α mRNA levels in neutrophils stimulated for 6 hours.
(G-H) Cytokines production: ELISA of TNF-α, in neutrophils treated for 2, 6 and 24 hours.
Depending on the experiment, cells were stimulated in complete medium supplemented with 100 ng/mL of E. Coli LPS (0111:B4, Sigma-Aldrich), anti-TREM-1 mAb (R&Dsystems) and TLT-1-peptides at different times and concentrations on 96-wells plates (Greiner Bio One). Supernatants were collected for cytokine measurements and cells subjected to flow cytometry or lysed for protein phosphorylation analyses and NFkB activity measurement.
Cytokines in supernatants of stimulated human cells or mouse plasma were measured by ELISA (human and mouse Quantikine ELISA kits, R&Dsystems) and cytokines panel assays (Proteome Profiler Human Cytokine Array Kit, Panel A and Proteome Profiler Mouse Cytokine Array Kit, Panel A, R&Dsystems) according to manufacturers' recommendations.

[2] = tested on: Trem-1 silenced human monocytes; experiment: TNF-α production by Trem-1 silenced monocytes; type: cell-based; conditions: Trem-1 siRNA; LPS/anti-TREM-1 mAb
Method: (I) ELISA of TNF-α produced by native or Trem-1 silenced human monocytes.
TREM-1 silencing was performed with Human Monocyte Nucleofector Kit (Amaxa) using siRNA sequences obtained from Qiagen. Isolated monocytes were electroporated with siRNA (without siRNA and with siRNA without electroporation as negative control, and with a GFP-reporter plasmid for positive control) and cultured for 24 hours in Human Monocyte Nucleofector Medium (Amaxa) before stimulation. TREM-1 expression was then assessed by quantitative RT-PCR and flow cytometry 24 hours after transfection. Medium was changed and monocytes were stimulated with LPS, anti-TREM-1 mAb and TLT-1-peptides for 24 hours. Therefore, medium was collected for cytokine measurement.

male Balb/c mice = experiment: LPS-induced endotoxemia in mice; type: in vivo, mouse
Method: Male Balb/c mice (20-23 g) were randomly grouped (15 mice per group) and treated with an LD50 of LPS. LR17 (100 μg or 250 μg in 0.2 mL NaCl 0.9%), scrambled-LR17 (100 μg in 0.2 mL NaCl 0.9%), or 0.2 mL NaCl 0.9% was administered 60 min before or 60 minutes after LPS. 4-6 animals per group were sacrificed upon penthotal overdose at 2 and 4 hours after LPS injection and blood was sampled through cardiac puncture. Results are mean±SD. p values are *p<0.05, **p<0.01, ***p<0.001 compared with control animals.
After approval by the local ethical committee, male Balb/c mice (4-6 weeks) were randomly grouped and treated with LPS i.p. in combination with LR17 (in 250 μL normal saline) or LR17-scrambled 1 hour before or after LPS challenge. The viability of mice was examined every hour, or animals were killed at regular intervals. Serum samples were collected by cardiac puncture and assayed for cytokines and sTREM-1 levels by ELISA (R&Dsystems).

Sequence: LQEEDAGEYGCMVDGAR (listed as Homo sapiens) [LR17]
- binding to the TREM-1 ligand (TREM-1 agonist, anti-TREM-1 mAb) (TREM-1 ligand (agonist)): able to bind the TREM-1 ligand
- binding of the TREM-1 ligand to immobilized TREM-1 [1]: able to block the binding
- neutrophil oxidative burst mediated by E. coli (human neutrophils): decreased
- neutrophils' phagocytic properties (human neutrophils; E. coli): did not alter
- PMA- or fMLP-induced oxidative burst (human neutrophils; not shown): no action
- production of TNF-α, IL-6, IL-8, GRO-α, IL-1β, IL-16, MCP-1, MIP-1β and RANTES (broad cytokine arrays) (TREM-1): decreased production
- LPS associated TNF-α secretion by neutrophils and monocytes, gene and protein level (TREM-1; LPS): dose-dependently reduced
- synergy of αTREM-1 with LPS for cytokine production (TREM-1; LPS + αTREM-1): blocked; also recorded: abrogated
- effects in human monocytes and upon TLR2 (Pam3SK4) stimulation (TREM-1; not shown): confirmed to occur
- cytokine production by activated neutrophils, gene and protein levels (TNF-α, IL-6, IL-8) (TREM-1; αTREM-1 5 μg/mL, peptide 30 μg/mL): able to decrease cytokine production
- αTREM-1 induced TNF-α production by neutrophils (TREM-1; αTREM-1 alone): abrogated
- TNF-α synthesis by silenced monocytes [2]: did not show any effect
- serum levels of TNF-α, IL-6, IL-10 and sTREM-1 (male Balb/c mice; 2 and 4 h, pre- and post-treatment, versus controls): reduced
- survival curve (male Balb/c mice; Log Rank test, p=0.0032): confers a survival advantage
- survival, delayed treatment (male Balb/c mice; injected 1 hour after LPS): significant protection
- comparison of doses (250 μg vs 100 μg) or injection times (male Balb/c mice; mouse, in vivo): no differences between doses or injection times; also recorded: did not confer advantage
- late death (male Balb/c mice; over 10 days): No late death occurred
- survival (male Balb/c mice; single i.p. dose 60 min before LPS (LD50, 25 mg/kg)): All LR17-treated animals survived
